Source: ChEMBL document CHEMBL1201862, “PubChem BioAssay data set” (2004)
Active and inactive are the calls of the source.

Assays:
cells [1] = format: functional, cell-based
[2] = biological target: T1, Nuclear receptor subfamily 0 group B member 1 (Homo sapiens, UniProt P51843); format: functional, cell-based;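 note: HEK293T cells transfected with SF-1 and DAX-1 plus StAR promoter luciferase reporter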
T1 sequence (P51843 whole entry): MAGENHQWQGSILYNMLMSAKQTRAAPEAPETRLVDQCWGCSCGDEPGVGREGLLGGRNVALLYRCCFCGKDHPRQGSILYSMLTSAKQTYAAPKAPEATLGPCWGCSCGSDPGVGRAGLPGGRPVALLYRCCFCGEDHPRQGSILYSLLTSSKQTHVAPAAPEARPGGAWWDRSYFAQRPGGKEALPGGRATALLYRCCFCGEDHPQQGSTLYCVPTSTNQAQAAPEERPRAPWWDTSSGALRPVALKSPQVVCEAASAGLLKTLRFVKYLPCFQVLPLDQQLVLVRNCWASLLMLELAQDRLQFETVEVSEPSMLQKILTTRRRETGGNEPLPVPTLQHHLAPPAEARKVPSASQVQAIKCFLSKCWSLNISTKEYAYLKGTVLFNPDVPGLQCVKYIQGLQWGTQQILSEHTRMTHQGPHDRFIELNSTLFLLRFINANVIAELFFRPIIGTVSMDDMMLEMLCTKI

[3] = biological target: SWI/SNF-related matrix-associated actin-dependent regulator of chromatin subfamily A member 2 (Homo sapiens, UniProt P51531); experiment: Luminescence-based cell-based high throughput dose response assay to identify activators of the function of SWI/SNF related, matrix associated, actin dependent regulator of chromatin, subfamily a, member 2 (SMARCA2, BRM).; format: functional
[4] = Counterscreen for activators of the function of SWI/SNF related, matrix associated, actin dependent regulator of chromatin, subfamily a, member 2 (SMARCA2, BRM): Luminescence-based cell-based high throughput dose response assay to identify non-selective compounds using the VP16 reporter assay.; format: functional
Vero = experiment: Vero cell toxicity, dose response, cytotoxicity control, plate reader, cherry-pick samples (AID 687020); format: functional, cell-based; settings: Chlorocebus sabaeus
Beta-lactamase [5] = biological target: Beta-lactamase (Salmonella choleraesuis (strain SC-B67), UniProt Q5J463); experiment: Epi-absorbance-based counterscreen for selective VIM-2 inhibitors: dose response biochemical high throughput screening assay to identify inhibitors of TEM-1 serine-beta-lactamase.
Beta-lactamase [6] = biological target: T2, Beta-lactamase (Pseudomonas aeruginosa, UniProt Q79MP6); experiment: IMP-1 metallo-beta-lactamase inhibitors, dose response, selectivity assay for VIM-2 inhibitor project, biochemical, epi-absorbance (AID 1920)
Beta Lactamase [7] = biological target: T3, Beta Lactamase (Pseudomonas aeruginosa, UniProt Q932Y6); experiment: VIM-2 metallo-beta-lactamase inhibitor potency, dose response, biochemical, epi-absorbance readout, selective inhibitors (AID 1919)
Beta-lactamase [8] = biological target: T2, Beta-lactamase; experiment: […] counterscreen for selective VIM-2 inhibitors: dose response biochemical high throughput screening assay to identify inhibitors of IMP-1 metallo-beta-lactamase.
Beta Lactamase [9] = biological target: T3, Beta Lactamase; experiment: VIM-2 inhibitor FRET-based artefact check, dose response, artefact control for selective VIM-2 inhibitor project, biochemical, FRET readout, CCF2 substrate (AID 1926)
Protein S100-A4 = Protein S100-A4 (Homo sapiens, UniProt P26447); experiment: S100A4-myosin IIA binding inhibitor potency, dose response, biochemical, fluorescence polarization, cherry-picked hits (AID 687001); format: functional
Mu-type opioid receptor = Mu-type opioid receptor (Homo sapiens, UniProt P35372); format: functional, cell-based;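 note: U2OS cells with beta-arrestin recruitment to OPRM1 by beta-gal complementation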
[10] = biological target: 5-hydroxytryptamine receptor 2A (Mus musculus, UniProt P35363); format: functional, cell-based;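 note: CHO-K1 cells with tagged receptor and beta-arrestin; agonist potency measured as compound-induced activation of the receptor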
[11] = cytotoxicity in HEK-293T cells, dose response, cytotoxicity control for TCR NF-kB inhibitor project, luminescence, T-cell screen hits (AID 489026); format: functional, cell-based;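 note: cells exposed to compound about 14 hours before the viability readout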
Galanin receptor type 3 = Galanin receptor type 3 (Homo sapiens, UniProt O60755); experiment: Fluorescence-based cell-based primary high throughput dose response assay to identify antagonists of the Galanin Receptor 3 (GalR3).; format: functional
cells [12] = format: functional, cell-based; settings: HEK-CNG
[13] = Shn3 3'UTR reporter inhibitors, dose response, cell-based, Clone20 osteoblasts, firefly luciferase, cherry-picked (AID 624132); format: functional;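 note: firefly luciferase luminescence from reporter carrying the Shn3 3'UTR in osteoblasts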
[14] = HepG2 cell cytotoxicity, dose response, cytotoxicity control for Shn3 inhibitor project, CellTiter-Glo, cherry-picked (AID 624134); format: functional, cell-based
[15] = control 3'UTR Renilla luciferase suppression, dose response, counter-screen for Shn3 inhibitor project, cell-based, Clone20-Shn3RL, cherry-picked (AID 624133); format: functional
[16] = biological target: T4, Methionyl-tRNA synthetase, putative (Trypanosoma brucei brucei, UniProt Q38C91); format: functional, Trypanosoma brucei brucei strain 927/4 GUTat10.1
[17] = Counterscreen for inhibitors of Trypanosoma brucei methionyl tRNA synthetase (MetRS): Luminescence-based cell-based high throughput dose response assay to identify compounds that are cytotoxic to Jurkat human T lymphocyte cells.; format: functional
[18] = biological target: T4, Methionyl-tRNA synthetase, putative; format: functional, Trypanosoma brucei brucei strain 927/4 GUTat10.1; remark: listed apart in the source
Cytochrome P450 2D6 = Cytochrome P450 2D6 (Homo sapiens, UniProt P10635);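 note: CYP2D6 member of a cytochrome P450 panel assay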
Cytochrome P450 3A4 = Cytochrome P450 3A4 (Homo sapiens, UniProt P08684);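 note: CYP3A4 tested as one member of a cytochrome P450 panel screen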
Cytochrome P450 2C9 = Cytochrome P450 2C9 (Homo sapiens, UniProt P11712)
Caspase-3 [19] = biological target: T5, Caspase-3 (Homo sapiens, UniProt P42574); format: functional
T5 sequence (P42574 whole entry): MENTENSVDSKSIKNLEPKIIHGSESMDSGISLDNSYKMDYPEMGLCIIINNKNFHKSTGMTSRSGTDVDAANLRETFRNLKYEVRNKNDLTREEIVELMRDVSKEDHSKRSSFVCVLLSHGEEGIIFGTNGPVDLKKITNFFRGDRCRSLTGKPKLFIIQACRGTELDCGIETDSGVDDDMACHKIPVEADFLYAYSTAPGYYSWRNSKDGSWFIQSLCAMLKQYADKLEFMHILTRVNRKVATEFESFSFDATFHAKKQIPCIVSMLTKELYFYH

[20] = biological target: T6, Sentrin-specific protease 7 (Homo sapiens, UniProt Q9BQF6); format: functional;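 note: Luminescence-based dose-response confirmation of ultra-high-throughput screening hits, measuring inhibition of SENP7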
T6 sequence (Q9BQF6 whole entry): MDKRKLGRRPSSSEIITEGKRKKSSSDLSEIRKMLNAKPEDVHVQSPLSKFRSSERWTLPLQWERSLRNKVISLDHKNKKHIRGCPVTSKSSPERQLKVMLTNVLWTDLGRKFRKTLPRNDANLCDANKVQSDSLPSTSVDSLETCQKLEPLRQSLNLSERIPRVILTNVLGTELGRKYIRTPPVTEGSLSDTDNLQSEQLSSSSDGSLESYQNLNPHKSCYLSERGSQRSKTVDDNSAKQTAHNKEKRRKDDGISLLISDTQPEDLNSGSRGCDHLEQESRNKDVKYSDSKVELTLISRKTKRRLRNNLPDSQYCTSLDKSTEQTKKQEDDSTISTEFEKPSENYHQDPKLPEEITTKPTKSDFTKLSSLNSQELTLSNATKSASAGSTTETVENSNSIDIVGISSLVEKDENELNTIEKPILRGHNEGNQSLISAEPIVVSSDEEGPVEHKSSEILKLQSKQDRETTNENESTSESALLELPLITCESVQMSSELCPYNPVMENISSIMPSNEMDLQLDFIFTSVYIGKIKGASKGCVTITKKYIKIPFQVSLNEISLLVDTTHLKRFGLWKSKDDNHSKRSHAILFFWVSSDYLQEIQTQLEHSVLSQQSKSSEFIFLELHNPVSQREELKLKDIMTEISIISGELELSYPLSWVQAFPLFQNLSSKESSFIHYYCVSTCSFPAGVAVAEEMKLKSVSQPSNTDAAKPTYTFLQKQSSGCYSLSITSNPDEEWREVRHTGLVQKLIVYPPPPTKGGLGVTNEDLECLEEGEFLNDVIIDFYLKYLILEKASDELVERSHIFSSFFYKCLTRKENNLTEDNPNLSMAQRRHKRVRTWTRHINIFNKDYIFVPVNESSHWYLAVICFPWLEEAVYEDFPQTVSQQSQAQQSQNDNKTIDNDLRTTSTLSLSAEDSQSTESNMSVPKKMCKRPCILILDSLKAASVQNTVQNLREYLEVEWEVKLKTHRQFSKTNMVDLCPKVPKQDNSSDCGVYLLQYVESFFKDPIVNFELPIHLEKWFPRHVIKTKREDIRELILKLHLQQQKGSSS

[21] = biological target: T7, Sentrin-specific protease 6 (Homo sapiens, UniProt Q9GZR1); format: functional;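 note: Luminescence-based dose-response confirmatory assay of SENP6 inhibition, following up an ultra-high-throughput screen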
T7 sequence (Q9GZR1 whole entry): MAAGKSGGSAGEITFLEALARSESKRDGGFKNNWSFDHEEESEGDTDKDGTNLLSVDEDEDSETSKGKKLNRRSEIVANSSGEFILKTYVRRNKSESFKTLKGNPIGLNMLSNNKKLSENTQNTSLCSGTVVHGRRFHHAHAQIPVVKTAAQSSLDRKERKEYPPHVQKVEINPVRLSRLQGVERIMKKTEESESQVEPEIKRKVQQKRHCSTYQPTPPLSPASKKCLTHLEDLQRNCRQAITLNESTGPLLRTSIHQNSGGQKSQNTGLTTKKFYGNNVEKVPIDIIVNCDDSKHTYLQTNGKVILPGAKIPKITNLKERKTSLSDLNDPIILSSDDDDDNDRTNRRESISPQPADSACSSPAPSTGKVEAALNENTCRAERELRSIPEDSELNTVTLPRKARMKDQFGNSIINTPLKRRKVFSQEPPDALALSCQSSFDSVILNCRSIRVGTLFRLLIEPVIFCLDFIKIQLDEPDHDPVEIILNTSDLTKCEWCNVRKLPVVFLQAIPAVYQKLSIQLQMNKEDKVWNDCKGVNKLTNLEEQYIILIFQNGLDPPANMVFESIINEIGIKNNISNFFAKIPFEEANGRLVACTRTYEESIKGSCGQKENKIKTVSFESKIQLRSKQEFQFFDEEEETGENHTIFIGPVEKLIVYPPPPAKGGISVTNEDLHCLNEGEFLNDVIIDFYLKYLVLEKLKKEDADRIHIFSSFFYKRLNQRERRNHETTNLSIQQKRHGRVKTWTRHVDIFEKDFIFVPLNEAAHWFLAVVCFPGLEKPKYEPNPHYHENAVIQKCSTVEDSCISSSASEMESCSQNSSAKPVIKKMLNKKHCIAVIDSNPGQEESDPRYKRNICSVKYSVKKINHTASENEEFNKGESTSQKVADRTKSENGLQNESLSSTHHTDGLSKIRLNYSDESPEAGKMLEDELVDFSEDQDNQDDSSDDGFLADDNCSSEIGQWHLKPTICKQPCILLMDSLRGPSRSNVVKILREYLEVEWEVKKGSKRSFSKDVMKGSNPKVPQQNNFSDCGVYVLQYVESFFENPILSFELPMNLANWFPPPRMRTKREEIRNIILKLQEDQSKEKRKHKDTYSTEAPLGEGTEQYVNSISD

[22] = biological target: T8, Sentrin-specific protease 8 (Homo sapiens, UniProt Q96LD8); format: functional
T8 sequence (Q96LD8 whole entry): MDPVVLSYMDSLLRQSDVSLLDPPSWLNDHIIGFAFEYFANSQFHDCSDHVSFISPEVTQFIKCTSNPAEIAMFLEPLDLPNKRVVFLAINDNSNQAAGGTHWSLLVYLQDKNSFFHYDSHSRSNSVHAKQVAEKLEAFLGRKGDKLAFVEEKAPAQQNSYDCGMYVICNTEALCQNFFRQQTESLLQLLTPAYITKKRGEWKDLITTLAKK

[23] = biological target: Mitochondrial peptide methionine sulfoxide reductase (Bos taurus, UniProt P54149); experiment: Absorbance-based biochemical high throughput dose response assay for activators of Methionine sulfoxide reductase A (MsrA).; format: functional
[24] = biological target: T8, Sentrin-specific protease 8; format: functional; remark: listed apart in the source
[25] = biological target: T8, Sentrin-specific protease 8; format: functional; remark: listed apart in the source
Caspase-3 [26] = biological target: T5, Caspase-3; experiment: Dose-response confirmation of uHTS inhibitor hits of Sentrin-Specific Protease 8 in a Caspase-3 Fluorescence assay.; format: functional

T2 sequence (Q79MP6 whole entry): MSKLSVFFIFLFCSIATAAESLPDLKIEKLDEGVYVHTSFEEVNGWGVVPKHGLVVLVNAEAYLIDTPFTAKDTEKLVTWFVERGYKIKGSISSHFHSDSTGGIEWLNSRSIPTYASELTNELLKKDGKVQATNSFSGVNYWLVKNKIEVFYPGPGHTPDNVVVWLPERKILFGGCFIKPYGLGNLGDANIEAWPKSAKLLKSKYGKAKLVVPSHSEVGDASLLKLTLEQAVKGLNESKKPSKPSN
T3 sequence (Q932Y6 whole entry): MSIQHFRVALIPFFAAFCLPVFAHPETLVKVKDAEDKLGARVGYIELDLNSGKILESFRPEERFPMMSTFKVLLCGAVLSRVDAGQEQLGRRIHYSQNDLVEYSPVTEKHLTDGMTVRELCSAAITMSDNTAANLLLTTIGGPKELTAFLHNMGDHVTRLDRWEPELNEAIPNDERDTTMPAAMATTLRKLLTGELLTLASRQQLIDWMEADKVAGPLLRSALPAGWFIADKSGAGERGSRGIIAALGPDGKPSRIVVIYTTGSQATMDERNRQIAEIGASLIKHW
T4 sequence (Q38C91 whole entry): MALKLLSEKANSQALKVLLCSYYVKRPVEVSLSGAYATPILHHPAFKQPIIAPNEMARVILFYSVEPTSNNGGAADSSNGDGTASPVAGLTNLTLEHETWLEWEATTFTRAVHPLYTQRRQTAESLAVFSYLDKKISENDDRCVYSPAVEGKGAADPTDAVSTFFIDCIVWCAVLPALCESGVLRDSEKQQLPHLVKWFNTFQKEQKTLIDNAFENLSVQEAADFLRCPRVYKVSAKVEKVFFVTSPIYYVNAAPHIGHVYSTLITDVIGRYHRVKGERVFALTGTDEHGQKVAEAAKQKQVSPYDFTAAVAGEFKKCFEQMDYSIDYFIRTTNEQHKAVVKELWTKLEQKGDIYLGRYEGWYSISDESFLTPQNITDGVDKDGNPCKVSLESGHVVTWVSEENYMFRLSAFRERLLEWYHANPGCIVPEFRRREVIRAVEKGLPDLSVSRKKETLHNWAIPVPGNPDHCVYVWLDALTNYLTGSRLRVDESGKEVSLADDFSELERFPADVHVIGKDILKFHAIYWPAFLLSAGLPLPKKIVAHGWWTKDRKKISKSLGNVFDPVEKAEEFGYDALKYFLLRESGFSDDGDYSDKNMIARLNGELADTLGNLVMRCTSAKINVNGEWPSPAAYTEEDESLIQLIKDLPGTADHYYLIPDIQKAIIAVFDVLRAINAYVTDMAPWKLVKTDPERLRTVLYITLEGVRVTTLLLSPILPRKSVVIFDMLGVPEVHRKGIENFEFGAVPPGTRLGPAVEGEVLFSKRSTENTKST
SWI/SNF-related matrix-associated actin-dependent regulator of chromatin subfamily A member 2, sequence (P51531 whole entry): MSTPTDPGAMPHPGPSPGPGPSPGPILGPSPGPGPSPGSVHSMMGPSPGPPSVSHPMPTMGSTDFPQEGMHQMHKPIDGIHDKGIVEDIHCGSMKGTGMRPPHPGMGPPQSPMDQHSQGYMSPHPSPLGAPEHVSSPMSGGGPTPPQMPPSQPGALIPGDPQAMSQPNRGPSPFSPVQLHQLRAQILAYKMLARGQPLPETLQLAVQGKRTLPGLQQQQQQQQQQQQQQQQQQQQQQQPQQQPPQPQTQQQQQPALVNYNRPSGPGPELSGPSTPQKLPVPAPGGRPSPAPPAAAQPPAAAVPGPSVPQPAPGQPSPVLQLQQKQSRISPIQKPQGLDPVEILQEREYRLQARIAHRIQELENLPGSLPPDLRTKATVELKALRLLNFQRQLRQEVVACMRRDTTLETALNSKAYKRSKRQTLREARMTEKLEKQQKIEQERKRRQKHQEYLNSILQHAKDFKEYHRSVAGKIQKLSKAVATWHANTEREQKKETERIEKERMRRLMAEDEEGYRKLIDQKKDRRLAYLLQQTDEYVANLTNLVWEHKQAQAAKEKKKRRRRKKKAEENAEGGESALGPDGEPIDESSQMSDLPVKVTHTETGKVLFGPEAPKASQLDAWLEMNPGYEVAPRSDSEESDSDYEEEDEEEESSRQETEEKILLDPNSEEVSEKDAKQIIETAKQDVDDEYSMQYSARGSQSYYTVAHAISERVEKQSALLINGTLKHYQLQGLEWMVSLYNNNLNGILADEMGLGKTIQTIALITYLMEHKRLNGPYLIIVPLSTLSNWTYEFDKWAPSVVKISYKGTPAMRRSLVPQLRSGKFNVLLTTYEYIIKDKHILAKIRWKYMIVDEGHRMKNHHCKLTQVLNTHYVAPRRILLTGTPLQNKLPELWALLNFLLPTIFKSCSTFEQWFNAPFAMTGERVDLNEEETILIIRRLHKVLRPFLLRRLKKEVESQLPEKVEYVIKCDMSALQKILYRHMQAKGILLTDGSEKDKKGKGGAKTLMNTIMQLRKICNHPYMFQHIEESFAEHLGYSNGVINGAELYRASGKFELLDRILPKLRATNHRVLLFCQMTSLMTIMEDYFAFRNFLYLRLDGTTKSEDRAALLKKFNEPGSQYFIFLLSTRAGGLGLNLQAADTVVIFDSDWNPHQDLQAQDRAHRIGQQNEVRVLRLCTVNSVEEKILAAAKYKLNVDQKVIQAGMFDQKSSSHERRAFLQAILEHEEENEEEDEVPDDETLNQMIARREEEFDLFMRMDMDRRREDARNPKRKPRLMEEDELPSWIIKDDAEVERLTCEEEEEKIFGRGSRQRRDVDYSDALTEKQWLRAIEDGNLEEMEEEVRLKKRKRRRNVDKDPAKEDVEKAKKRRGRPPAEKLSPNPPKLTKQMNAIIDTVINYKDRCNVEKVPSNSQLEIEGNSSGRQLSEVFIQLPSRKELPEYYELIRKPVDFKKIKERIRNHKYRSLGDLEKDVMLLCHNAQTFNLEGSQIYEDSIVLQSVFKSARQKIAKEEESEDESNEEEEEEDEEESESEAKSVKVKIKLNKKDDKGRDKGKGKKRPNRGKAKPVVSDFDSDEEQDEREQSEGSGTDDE
Beta-lactamase (Salmonella choleraesuis (strain SC-B67), UniProt Q5J463), sequence (Q5J463 whole entry): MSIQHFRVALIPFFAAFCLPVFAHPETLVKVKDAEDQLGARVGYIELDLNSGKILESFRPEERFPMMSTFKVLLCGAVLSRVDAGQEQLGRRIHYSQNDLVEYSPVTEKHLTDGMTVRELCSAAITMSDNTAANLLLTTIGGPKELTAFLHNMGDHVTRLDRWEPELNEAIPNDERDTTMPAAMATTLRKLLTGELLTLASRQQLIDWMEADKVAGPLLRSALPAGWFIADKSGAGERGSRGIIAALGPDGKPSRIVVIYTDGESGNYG
Protein S100-A4, sequence (P26447 whole entry): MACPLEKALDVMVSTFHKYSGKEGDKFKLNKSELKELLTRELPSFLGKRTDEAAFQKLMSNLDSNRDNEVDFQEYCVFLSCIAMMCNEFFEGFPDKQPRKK
Mu-type opioid receptor, sequence (P35372 whole entry): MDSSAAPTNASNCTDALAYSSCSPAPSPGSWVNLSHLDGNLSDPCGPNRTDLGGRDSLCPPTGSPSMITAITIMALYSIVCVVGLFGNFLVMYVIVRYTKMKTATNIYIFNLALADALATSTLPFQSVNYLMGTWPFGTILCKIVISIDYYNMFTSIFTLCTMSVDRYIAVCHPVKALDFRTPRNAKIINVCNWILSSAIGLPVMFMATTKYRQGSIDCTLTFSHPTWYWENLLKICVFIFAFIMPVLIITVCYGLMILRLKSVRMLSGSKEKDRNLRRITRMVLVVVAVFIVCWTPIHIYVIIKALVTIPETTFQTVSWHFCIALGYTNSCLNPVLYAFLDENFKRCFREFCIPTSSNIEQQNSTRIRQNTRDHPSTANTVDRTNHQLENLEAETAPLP
5-hydroxytryptamine receptor 2A, sequence (P35363 whole entry): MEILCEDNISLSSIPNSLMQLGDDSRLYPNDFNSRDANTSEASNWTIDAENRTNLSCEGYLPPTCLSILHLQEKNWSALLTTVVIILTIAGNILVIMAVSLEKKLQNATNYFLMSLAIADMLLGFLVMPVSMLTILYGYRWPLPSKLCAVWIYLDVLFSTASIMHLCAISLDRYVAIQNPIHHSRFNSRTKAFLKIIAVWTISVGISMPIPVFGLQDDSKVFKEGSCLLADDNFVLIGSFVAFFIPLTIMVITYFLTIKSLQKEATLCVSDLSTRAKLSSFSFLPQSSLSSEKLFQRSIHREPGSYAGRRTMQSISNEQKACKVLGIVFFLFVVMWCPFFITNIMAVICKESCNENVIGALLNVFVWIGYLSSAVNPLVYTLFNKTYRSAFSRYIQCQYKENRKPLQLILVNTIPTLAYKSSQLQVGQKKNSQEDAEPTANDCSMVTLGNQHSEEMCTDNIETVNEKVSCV
Cytochrome P450 2D6, sequence (P10635 whole entry): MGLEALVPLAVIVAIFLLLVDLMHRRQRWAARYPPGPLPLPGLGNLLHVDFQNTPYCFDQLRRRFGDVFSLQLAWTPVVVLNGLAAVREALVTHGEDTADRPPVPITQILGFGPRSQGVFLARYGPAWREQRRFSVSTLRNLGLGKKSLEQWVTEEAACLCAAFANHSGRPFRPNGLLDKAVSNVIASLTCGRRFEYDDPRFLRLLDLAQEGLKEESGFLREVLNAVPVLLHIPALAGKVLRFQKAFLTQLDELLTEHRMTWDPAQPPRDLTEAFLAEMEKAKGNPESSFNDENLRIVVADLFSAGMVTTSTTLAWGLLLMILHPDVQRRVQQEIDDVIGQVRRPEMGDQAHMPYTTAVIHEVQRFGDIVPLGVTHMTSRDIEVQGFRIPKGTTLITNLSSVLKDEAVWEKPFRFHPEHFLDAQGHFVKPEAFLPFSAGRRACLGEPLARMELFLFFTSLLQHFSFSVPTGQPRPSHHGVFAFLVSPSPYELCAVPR
Mitochondrial peptide methionine sulfoxide reductase, sequence (P54149 whole entry): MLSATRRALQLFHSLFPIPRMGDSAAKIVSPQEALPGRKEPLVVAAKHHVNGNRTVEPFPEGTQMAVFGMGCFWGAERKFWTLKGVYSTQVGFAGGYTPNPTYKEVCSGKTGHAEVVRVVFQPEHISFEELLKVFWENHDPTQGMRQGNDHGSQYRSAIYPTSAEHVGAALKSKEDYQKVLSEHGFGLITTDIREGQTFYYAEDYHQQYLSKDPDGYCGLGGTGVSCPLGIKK

## Cn1nnnc1SCC(=O)Nc1ccc2c(c1)OCCO2
Cells [1]
  IC50: > 67.5 µM (inactive)
[2]
  IC50: > 67.5 µM (inactive)

## CCCCn1c(=N)n(CC(=O)c2ccc(OC)cc2)c2ccccc21
[3]
  EC50: > 91.1 µM (inactive)
[4]
  EC50: > 91.1 µM (inactive)

## CC1(C(=O)NCc2cccc(C(F)(F)F)c2)CCN1Cc1cc2ccccc2o1 (stereo not drawn)
Vero
  AC50: 20.4 µM (active)

## COc1ccc(C(=O)C2=C(O)C(=O)N(Cc3ccco3)C2c2cc(OC)ccc2OC)cc1 (stereo not drawn)
Beta-lactamase [5]
  IC50: > 59.6 µM (inactive)
Beta-lactamase [6]
  IC50: > 59.6 µM (inactive)
Beta Lactamase [7]
  IC50: 12.8 µM (inactive)
Beta-lactamase [8]
  IC50: > 59.6 µM (inactive)
Beta Lactamase [9]
  IC50: 5.61 µM (active)

## O=C(CCc1ccccc1Cl)NC1CCCN(c2ccc(C(F)(F)F)cn2)C1 (stereo not drawn)
Protein S100-A4
  AC50: 9.67 µM (active)

## Cc1ccc(C)c(CN2CCN(c3ncccn3)CC2)c1
Mu-type opioid receptor
  EC50: 92.4 µM (inactive)
[10]
  EC50: 76 µM (inactive)

## CCCCc1ccc(NC(=O)c2ccc(N(C)S(C)(=O)=O)cc2)cc1
[11]
  IC50: > 80 µM (inactive)
Galanin receptor type 3
  IC50: 0.996 µM (active)
Cells [12]
  EC50: > 29.9 µM (inactive)

## Nc1nc(N)c(-c2cccc(C(F)(F)F)c2)c(Cc2cccc(C(F)(F)F)c2)n1
[13]
  AC50: 3.6 µM (active)
[14]
  AC50: 5.88 µM (active)
[15]
  AC50: 3.87 µM (active)
[16]
  IC50: 19.5 µM (inactive)
[17]
  IC50: 20.7 µM (inactive)
[18]
  IC50: 12.7 µM (inactive)
Cytochrome P450 2D6
  AC50: 3.98 µM (inconclusive)
Cytochrome P450 3A4
  AC50: 3.16 µM (inconclusive)
Cytochrome P450 2C9
  AC50: 5.01 µM (inconclusive)

## O=C(COC(=O)c1ccc([N+](=O)[O-])s1)NNC(=O)c1ccccc1
Caspase-3 [19]
  IC50: 6.74 µM (active)
[20]
  IC50: 6.91 µM (active)
[21]
  IC50: 4.34 µM (active)
[22]
  IC50: 4.2 µM (active)
[23]
  EC50: 36.1 µM (inactive)
[24]
  IC50: 2.3 µM (active)
[25]
  IC50: 4.94 µM (active)
Caspase-3 [26]
  IC50: 84.6 µM (inactive)
